For orientation: GI50 means the concentration at which growth is held to half of that of the control.

These results are taken from ChEMBL document CHEMBL1201862, “PubChem BioAssay data set” (2004).

Common to all, as to test: DTP human tumour cell line panel, 48 h
Experiment [1] relates to OVCAR-4.
Experiment [2] relates to PC-3.
In experiment [3] the test system is SW-620.
In experiment [4] the test system is SK-OV-3.
The subject of experiment [5] is SR.
Experiment [6] relates to OVCAR-5.
Experiment [7] concerns 786-0.
Experiment [8] has as its system HCT-116.
Experiment [9] concerns HCC 2998.
Experiment [10] concerns BT-549.
Experiment [11] deals with RPMI-8226.
Experiment [12] relates to M14.
The subject of experiment [13] is NCI-H23.
Experiment [14] deals with MDA-MB-435.
Experiment [15] deals with UACC-62.
Experiment [16] deals with HOP-62.
Experiment [17] relates to A549.
Experiment [18] concerns ACHN.
The test system of experiment [19] is SK-MEL-5.
Experiment [20] relates to NCI-H522.

The structures appear in SMILES notation.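 Exposure lasted 48 hours, with cells grown in 96-well plates and compounds tested at five concentrations. Abbreviation: GI50, concentration required for 50% inhibition of growth.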 Active and inactive are the calls of the source. Rule as the data show it: active = GI50 up to about 1.1 µM and inactive = higher. A value given as a limit tells only on which side of the number the result lay.

As to `COc1cc2oc3c(c(=O)c2c(O)c1/C=C/C(C)C)CCC(C)(C)Oc1cc(O)ccc1-3`, the GI50 in [1] was 14.3 µM (inactive); in [2], 15.2 µM (inactive); in experiment [3], 21.4 µM (inactive); in [4], 16.7 µM (inactive); in [5] it was 4.78 µM (inactive); in [6], 16.6 µM (inactive). The GI50 in experiment [7] is 14.9 µM (inactive); in experiment [8] it was 18.2 µM (inactive); in experiment [9] it was 14.4 µM (inactive); in experiment [10], 17.1 µM (inactive); in [11], 20 µM (inactive); in [12] it was 10.8 µM (inactive). Also, the GI50 was 16 µM (inactive) in experiment [13]; 16.1 µM (inactive) in [14]; 15.6 µM (inactive) in [15]; 15.4 µM (inactive) in [16]; 12 µM (inactive) in [17]; 14.1 µM (inactive) in experiment [18]. Further, the values for the GI50 in [19] and in [20] were 18.7 µM (inactive) and 18.1 µM (inactive), respectively.
For `CN(C)CC1CCC(CN(C)C)C(=O)C1=O` (stereo not given), the GI50 in [1] was 7.8 µM (inactive); in [2], 16.7 µM (inactive); in experiment [3] it was 1.83 µM (inactive); in experiment [4], 24 µM (inactive); in [5], 2.09 µM (inactive); in experiment [6], 16.5 µM (inactive). Further, the GI50 in [7] is 5.14 µM (inactive); in experiment [8] it was 2.4 µM (inactive); in [9] it was 20.9 µM (inactive); in [10] it was 8.67 µM (inactive); in experiment [11] it was 2.52 µM (inactive); in experiment [12] it was 5.52 µM (inactive). Moreover, the GI50 in [13] was 14.6 µM (inactive); in experiment [14] it was 17.8 µM (inactive); in [15], 16.1 µM (inactive); in [16], 20.1 µM (inactive); in [17], 10.9 µM (inactive); in experiment [18], 4.85 µM (inactive). Besides, the GI50 in experiment [19] was 16.3 µM (inactive); in experiment [20] it was 0.946 µM (active).
As to `C=C(C)[C@@H]1CC=C(CO)CC1` [PERILLYL ALCOHOL], the GI50 was 515 µM (inactive) in experiment [1]; > 10 µM (inactive) in experiment [2]; 637 µM (inactive) in experiment [3]; 748 µM (inactive) in experiment [4]; 152 µM (inactive) in experiment [5]; 169 µM (inactive) in [6]. Also, the GI50 in [7] is 195 µM (inactive); in [8], 96.2 µM (inactive); in experiment [9] it was 753 µM (inactive); in experiment [10], > 10 µM (inactive); in [11], > 10 µM (inactive); in experiment [12], 710 µM (inactive). The GI50 was 465 µM (inactive) in [13]; > 10 µM (inactive) in [14]; 236 µM (inactive) in [15]; 184 µM (inactive) in experiment [16]; 126 µM (inactive) in [17]; 121 µM (inactive) in experiment [18]. Moreover, the GI50 in [19] is 110 µM (inactive); in experiment [20], 344 µM (inactive).
Take `CC[C@H](C)C(=O)O[C@H]1CCC=C2C=C[C@H](C)[C@H](CC[C@@H]3C[C@@H](O)CC(=O)O3)[C@H]21` [MEVASTATIN]: the GI50 is 43.1 µM (inactive) in experiment [1]; 2.26 µM (inactive) in experiment [2]; 24.7 µM (inactive) in [3]; 44.3 µM (inactive) in experiment [4]; 8.73 µM (inactive) in [5]; 31.6 µM (inactive) in [6]. For the same compound, the GI50 is 13.3 µM (inactive) in experiment [7]; 17.1 µM (inactive) in experiment [8]; 25.6 µM (inactive) in experiment [9]; 4.75 µM (inactive) in experiment [10]; 20 µM (inactive) in experiment [11]; 10 µM (inactive) in experiment [12]. In addition, the GI50 in experiment [13] is 20.1 µM (inactive); in experiment [14], 24.1 µM (inactive); in experiment [15], 5.68 µM (inactive); in [16], > 100 µM (inactive); in [17], 27.4 µM (inactive); in experiment [18] it was 3.88 µM (inactive). The GI50 in experiment [19] was 20.6 µM (inactive); in experiment [20] it was 2.85 µM (inactive).
With `Cc1cc2ccccc2n2c1nc1ccc(O)cc12`, the GI50 was > 10 µM (inactive) in experiment [1]; > 10 µM (inactive) in [2]; > 10 µM (inactive) in experiment [3]; > 10 µM (inactive) in experiment [4]; 9.73 µM (inactive) in [5]; > 10 µM (inactive) in [6]. The GI50 in experiment [7], in experiment [8], in experiment [9], in experiment [10], in experiment [11] and in experiment [12] was > 10 µM (inactive) throughout. Further, the GI50 in [13] is > 10 µM (inactive); in [14] it was > 10 µM (inactive); in [15] it was > 10 µM (inactive); in experiment [16] it was > 10 µM (inactive); in experiment [17], > 10 µM (inactive); in experiment [18] it was 9.91 µM (inactive). Also, the GI50 in [19] is > 10 µM (inactive); in [20] it was 9.04 µM (inactive).
